Source: paper PMC11061419, “Identification of novel small molecule inhibitors of twin arginine translocation (Tat) pathway and their effect on the control of Campylobacter jejuni in chickens” (Frontiers in Microbiology, 2024)
In brackets after ≈: the same amount, converted by molar mass.

Key:
[1] = test system: C. jejuni Au-47; assay: Copper sulfate sensitivity dose–response assay in vitro (MIC/MBC); type: cell-based; settings: Campylobacter jejuni; for MIC: AU47, read-out: MIC, Au-47 (Table S4); for MBC: AU47, 0.5 mM CuSO4, read-out: MBC, Au-47 (Table S5)
Protocol: (§1) Campylobacter jejuni 81–176 was the primary model strain used for the selection of the potential Tat-dependent inhibitors by high-throughput screening. C. jejuni 81–176 is resistant to 0.5 and 1 mM CuSO4 (Supplementary Figure S1). C. jejuni 81–176 tatC knockout mutant (C. jejuni ΔtatC) was used to confirm the Tat-dependent inhibitory effect of the selected SM. C. jejuni ΔtatC is susceptible to 0.5 mM and higher of CuSO4 ([Rajashekara et al., 2009]). The specificity of the Tat-dependent inhibitors was also tested on 11 additional Campylobacter strains (C. coli ATCC33559 and 10 other C. jejuni strains isolated from chickens) and 7 commensal/beneficial bacteria (Supplementary Table S1). The […] (Au-13, Au-20, Au-38, Au-39, Au-47, Au-50, Au-24, Au-32, Au-44, and Au-45) were selected based on their single nucleotide polymorphism (SNP)-type and percent of prevalence in chickens ([Merchant-Patel et al., 2008]; [Kumar et al., 2016]). Additional details about the bacterial strains are shown in Supplementary Table S1.
(§2) In total, 19 SMs were two-fold serially diluted to obtain a final SM concentration ranging from 6.25 to 0.012 μg/mL. C. jejuni 81–176 was then treated with a determined concentration of SM, as described in the copper sensitivity assay. […] The lowest bactericidal SM concentration was considered the MBC (no increase in OD600 over time and no viable cells were recovered on agar plate after challenge) (N = 3 replicates per SM). […] However, these SMs were two-fold serially diluted to obtain a final SM concentration ranging from 5 μg to 0.0625 μg for testing (N = two independent experiments with four technical replicate for each SM).

[2] = test system: C. jejuni Au-44; assay: as above; type: cell-based; settings: Campylobacter jejuni; for MIC: AU44, read-out: MIC, Au-44 (Table S4); for MBC: AU44, 0.5 mM CuSO4, read-out: MBC, Au-44 (Table S5)
Protocol: as §1, §2

[3] = test system: C. jejuni Au-39; assay: as above; type: cell-based; settings: Campylobacter jejuni; for MIC: AU39, read-out: MIC, Au-39 (Table S4); for MBC: AU39, 0.5 mM CuSO4, read-out: MBC, Au-39 (Table S5)
Protocol: as §1, §2

[4] = test system: C. jejuni Au-50; assay: as above; type: cell-based; settings: Campylobacter jejuni; for MIC: AU50, read-out: MIC, Au-50 (Table S4); for MBC: AU50, 0.5 mM CuSO4, read-out: MBC, Au-50 (Table S5)
Protocol: as §1, §2

[5] = test system: C. coli ATCC33559; assay: as above; type: cell-based; settings: Campylobacter coli; for MIC: ATCC33559, read-out: MIC, C. coli (Table S4); for MBC: ATCC33559, 0.5 mM CuSO4, read-out: MBC, C. coli (Table S5)
Protocol: as §1, §2

[6] = test system: C. jejuni Au-45; assay: as above; type: cell-based; settings: Campylobacter jejuni; for MIC: AU45, read-out: MIC, Au-45 (Table S4); for MBC: AU45, 0.5 mM CuSO4, read-out: MBC, Au-45 (Table S5)
Protocol: as §1, §2

[7] = test system: C. jejuni Au-13; assay: as above; type: cell-based; settings: Campylobacter jejuni; for MIC: AU13, read-out: MIC, Au-13 (Table S4); for MBC: AU13, 0.5 mM CuSO4, read-out: MBC, Au-13 (Table S5)
Protocol: as §1, §2

[8] = test system: C. jejuni Au-38; assay: as above; type: cell-based; settings: Campylobacter jejuni; for MIC: AU38, read-out: MIC, Au-38 (Table S4); for MBC: AU38, 0.5 mM CuSO4, read-out: MBC, Au-38 (Table S5)
Protocol: as §1, §2

[9] = test system: C. jejuni Au-32; assay: as above; type: cell-based; settings: Campylobacter jejuni; for MIC: AU32, read-out: MIC, Au-32 (Table S4); for MBC: AU32, 0.5 mM CuSO4, read-out: MBC, Au-32 (Table S5)
Protocol: as §1, §2

[10] = test system: C. jejuni Au-24; assay: as above; type: cell-based; settings: Campylobacter jejuni; for MIC: AU24, read-out: MIC, Au-24 (Table S4); for MBC: AU24, 0.5 mM CuSO4, read-out: MBC, Au-24 (Table S5)
Protocol: as §1, §2

[11] = test system: C. jejuni Au-20; assay: as above; type: cell-based; settings: Campylobacter jejuni; for MIC: AU20, read-out: MIC, Au-20 (Table S4); for MBC: AU20, 0.5 mM CuSO4, read-out: MBC, Au-20 (Table S5)
Protocol: as §1, §2

[12] = test system: Commensal/beneficial gut bacteria (n = 7); assay: Activity spectrum against commensal/beneficial gut bacteria at 6.25 μg/mL; type: cell-based; settings: 6.25 μg/mL SM
Protocol: A similar experiment was performed with seven commensal/beneficial gut bacteria to determine species specificity of these SMs. In brief, an overnight suspension was normalized at 0.05 OD600 using the appropriate medium and challenged with 6.25 μg/mL of SM. Details about the strains and their growing conditions are shown in Supplementary Table S1. Medium alone and 1% DMSO were used as controls (N = 3 replicates per SM).

[13] = test system: Campylobacter spp. (12 strains); assay: Activity spectrum against Campylobacter strains at 6.25 μg/mL with 0.5 mM CuSO4; type: cell-based, Campylobacter jejuni, Campylobacter coli; settings: 6.25 μg/mL SM
[14] = test system: C. jejuni 81–176; assay: Copper sulfate sensitivity dose–response assay in vitro (MIC/MBC); type: cell-based, Campylobacter jejuni; settings: for MBC / MIC: Campylobacter jejuni, 0.5 mM CuSO4, head displaced; for MBC: read-out: MBC, C. jejuni (Table S5); for MIC: read-out: MIC, C. jejuni (Table S4); for C. jejuni 81–176 in vitro MBC: minimal bactericidal concentration in presence of 0.5 mM CuSO4; for C. jejuni 81–176 in vitro MIC: minimal bacteriostatic concentration in presence of 0.5 mM CuSO4
Protocol: as §2

[15] = test system: intracellular C. jejuni 81–176 in Caco-2 cells; assay: Copper sulfate sensitivity dose–response assay in infected Caco-2 colon epithelial cells; type: cell-based, Campylobacter jejuni; settings: 0.5 mM CuSO4; for C. jejuni 81–176 MBC in Caco2 cells: infected Caco-2 cells, 24 h
Protocol: The intracellular reduction in C. jejuni in the presence of a given SM (T1-T8) and 0.5 mM CuSO4 were evaluated using Caco-2 cells, as previously described ([Kumar et al., 2016]; [Deblais et al., 2019]). In brief, cells were infected for 2 h using a multiplicity of infection (MOI) of 100. Infected cells were treated with SM at a final concentration ranging between 5 and 0.315 μg/mL and incubated at 37°C for 24 h in a humidified 5% CO2 incubator. Following incubation, cells were washed once with 1X PBS, lysed with 0.1% Triton-100X, serially 10-fold diluted in 1X PBS, and plated on MH agar plate. Plates were incubated in microaerophilic conditions at 42°C for 24 h, to determine the intracellular survival. Cells not infected and not treated and cells infected and treated with 1% DMSO were used as controls (N = two independent experiments with four technical replicate for each SM).

## CCCNC(=S)Nc1cc(OC)cc(OC)c1 [T1]
[1]
  MIC: 0.16 µg/mL (≈ 0.629 µM)
  MBC: 0.32 µg/mL (≈ 1.26 µM)
[2]
  MIC: 0.31 µg/mL (≈ 1.22 µM)
  MBC: 0.62 µg/mL (≈ 2.44 µM)
[3]
  MIC: 0.31 µg/mL (≈ 1.22 µM)
  MBC: 0.62 µg/mL (≈ 2.44 µM)
[4]
  MIC: 0.31 µg/mL (≈ 1.22 µM)
  MBC: 0.62 µg/mL (≈ 2.44 µM)
[5]
  MIC: 0.31 µg/mL (≈ 1.22 µM)
  MBC: 0.62 µg/mL (≈ 2.44 µM)
[6]
  MIC: 0.31 µg/mL (≈ 1.22 µM)
  MBC: 0.62 µg/mL (≈ 2.44 µM)
[7]
  MIC: 1.25 µg/mL (≈ 4.91 µM)
  MBC: 2.5 µg/mL (≈ 9.83 µM)
[8]
  MIC: 0.31 µg/mL (≈ 1.22 µM)
  MBC: 0.62 µg/mL (≈ 2.44 µM)
[9]
  MIC: 0.62 µg/mL (≈ 2.44 µM)
  MBC: 1.24 µg/mL (≈ 4.88 µM)
[10]
  MIC: 0.16 µg/mL (≈ 0.629 µM)
  MBC: 0.32 µg/mL (≈ 1.26 µM)
[11]
  MIC: 0.31 µg/mL (≈ 1.22 µM)
  MBC: 0.62 µg/mL (≈ 2.44 µM)
[12]
  Growth inhibition at 6.25 μg/mL, Commensal/beneficial gut bacteria (strains inhibited/tested): 0/7
[13]
  Growth inhibition at 6.25 μg/mL, Campylobacter spp. (strains inhibited/tested): 12/12
[14]
  MBC: 0.62 µg/mL (≈ 2.44 µM)
  MIC: 0.19 µg/mL (≈ 0.747 µM)
  C. jejuni 81–176 in vitro MBC: 0.62 µg/mL
  C. jejuni 81–176 in vitro MIC: 0.19 µg/mL
[15]
  C. jejuni 81–176 MBC in Caco2 cells: 0.63 µg/mL

## CC(C)(C)NC(=S)NNc1c(Cl)cncc1Cl [T2]
[1]
  MIC: 0.31 µg/mL (≈ 1.06 µM)
  MBC: 0.62 µg/mL (≈ 2.11 µM)
[2]
  MIC: 0.31 µg/mL (≈ 1.06 µM)
  MBC: 0.62 µg/mL (≈ 2.11 µM)
[3]
  MIC: 0.31 µg/mL (≈ 1.06 µM)
  MBC: 0.62 µg/mL (≈ 2.11 µM)
[4]
  MIC: 0.31 µg/mL (≈ 1.06 µM)
  MBC: 0.62 µg/mL (≈ 2.11 µM)
[5]
  MIC: 0.62 µg/mL (≈ 2.11 µM)
  MBC: 1.24 µg/mL (≈ 4.23 µM)
[6]
  MIC: 0.62 µg/mL (≈ 2.11 µM)
  MBC: 1.24 µg/mL (≈ 4.23 µM)
[7]
  MIC: 0.31 µg/mL (≈ 1.06 µM)
  MBC: 0.62 µg/mL (≈ 2.11 µM)
[8]
  MIC: 0.62 µg/mL (≈ 2.11 µM)
  MBC: 1.24 µg/mL (≈ 4.23 µM)
[9]
  MIC: 0.62 µg/mL (≈ 2.11 µM)
  MBC: 1.24 µg/mL (≈ 4.23 µM)
[10]
  MIC: 0.31 µg/mL (≈ 1.06 µM)
  MBC: 0.62 µg/mL (≈ 2.11 µM)
[11]
  MIC: 0.62 µg/mL (≈ 2.11 µM)
  MBC: 1.24 µg/mL (≈ 4.23 µM)
[12]
  Growth inhibition at 6.25 μg/mL, Commensal/beneficial gut bacteria (strains inhibited/tested): 2/7
[12]; Ef Enterococcus faecalis, Lb Levilactobacillus brevis, LGG Lacticaseibacillus rhamnosus GG
  Commensal/beneficial gut bacteria inhibited at 6.25 μg/mL (species): Lb and Ef
[13]
  Growth inhibition at 6.25 μg/mL, Campylobacter spp. (strains inhibited/tested): 12/12
[14]
  MBC: 0.62 µg/mL (≈ 2.11 µM)
  MIC: 0.01 µg/mL (≈ 0.0341 µM)
  C. jejuni 81–176 in vitro MBC: 0.62 µg/mL
  C. jejuni 81–176 in vitro MIC: 0.01 µg/mL
[15]; 24 h treatment
  SM concentration that completely cleared intracellular C. jejuni 81–176 in Caco-2 cells (MBC in Caco2 cells): < 5 µg/mL
[15]
  C. jejuni 81–176 MBC in Caco2 cells: 1.25 µg/mL
